Reference: patent US20110092367A1, “Herbicidal Compositions Comprising 4-amino-3,6-dichloropyridine-2-carboxylic Acid” (BASF SE, priority 2008, published 2011)

How the values were obtained:
Type in all cases: in vivo
Veronica persica = experiment: Field trial Example 1, successive application: damage on VERPE
From the text: (§1) Aminiopyralid was used as commercial aquaeous solution having an active ingredient concentration of 240 g/l (Milestone™). Metazachlor was used as a commercial suspension concentrate having an active ingredient concentration of 500 g/l (Butisan S®).
(§2) The performance of aminopyralid applied as an alone treatment at 15, 30 and 50 g a.i./ha applied as an early post emergence treatment and an post emergence treatment in comparison to two different applications including metazachlor at 500 g a.i./ha as an early post emergence application in succession of aminopyralid as a post emergence application at 15 and 30 g a.i./ha was assessed in an oilseed rape field trials.
(§3) The early post emergence treatment was applied by means of fine distributed nozzles at the growth stage (GS) of the crop BBCH 11-12.
(§4) The post emergence treatment was applied by means of fine distributed nozzles at the growth stage (GS) of the crop BBCH 13-14.
(§5) The test period extended over the autumn and spring season (205 days).
(§6) In the following experiments, the herbicidal activity for the individual herbicide compounds (solo application) and of the herbicidal succession was assessed 4 times:
(§7) The evaluation for the damage on undesired weeds caused by the chemical compositions was carried out using a scale from 0 to 100%, compared to the untreated control plants. Here, 0 means no damage and 100 means complete destruction of the plants.

Alopecurus myosuroides = experiment: Field trial Example 2, combined application: ALOMY; conditions: Aminopyralid 7.5 g ai/ha solo, 28 DAT
Procedure: as §1, §7
(§8) The value E, which is to be expected if the activity of the individual compounds is just additive, was calculated using the method of S. R. Colby (1967) “Calculating synergistic and antagonistic responses of herbicide combinations”, Weeds 15, p. 22 ff.
(§9) The performance of aminopyralid, applied as an alone treatment at […] and 15 g ai/ha, and the performance of metazachlor, applied as an alone treatment at 375 and 500 g ai/ha, as well as the mixtures of the both compounds have been assessed in winter oilseed rape field trials. The trials have been conducted in Germany at two locations.
(§10) Post emergence treatment was applied by means of fine distributed nozzels at the growth stage (GS/BBCH 11/12).

Matricaria inodora = experiment: Field trial Example 2, combined application: MATIN; conditions: Aminopyralid 7.5 g ai/ha solo
Procedure: as §1, §7, §8, §9, §10

Anthemis arvensis = experiment: Field trial Example 2, combined application: ANTAR
Procedure: as §1, §7, §8, §9, §10

Centaurea cyanus = experiment: Field trial Example 2, combined application: CENCY; conditions: Aminopyralid 7.5 g ai/ha solo, 78 DAT
Procedure: as §1, §7, §8, §9, §10

Stellaria media [1] = experiment: Field trial Example 2, combined application: STEME; conditions: Aminopyralid 7.5 g ai/ha solo, 28 DAT
Procedure: as §1, §7, §8, §9, §10

Stellaria media [2] = experiment: Greenhouse trial, post-emergence: STEME; conditions: post-emergence (Tables 7-9)
Procedure: The test plants have been seeded, separately for each species, in plastic containers in sandy loamy soil containing 5% organic matter.
For the post emergence treatment, the plants were first grown to the 2 leaf station (GS 12). Here, the herbicidal compositions were suspended or emulsified in water as distribution medium and sprayed using finely distributing nozzels.
The plants have been cultivated due to there individual requirements at 10-25° C. and 20-35° C. The plants were irrigated due to there necessity. […]
as §7
Calculation of expected activity of binary mixtures was done by using the Colby-Formula according to Example 1.

Galium aparine = experiment: Field trial Example 1, successive application: damage on GALAP
From the text: as §1, §2, §3, §4, §5, §6, §7

Sissimbrium officinale = experiment: Field trial Example 1, successive application: damage on SSYOF
From the text: as §1, §2, §3, §4, §5, §6, §7

[3] = 15 g ai/ha, treatment A early post emergence, DAT 25/DALT 10
[4] = 15 g ai/ha, treatment A early post emergence, DAT 65/DALT 50
[5] = 15 g ai/ha, treatment A early post emergence, DAT 176/DALT 161
[6] = 15 g ai/ha, treatment B post emergence, DAT 25/DALT 10
[7] = 15 g ai/ha, treatment B post emergence, DAT 65/DALT 50
[8] = 15 g ai/ha, treatment B post emergence, DAT 176/DALT 161
[9] = 30 g ai/ha, treatment A early post emergence, DAT 25/DALT 10
[10] = 30 g ai/ha, treatment A early post emergence, DAT 65/DALT 50
[11] = 30 g ai/ha, treatment A early post emergence, DAT 176/DALT 161
[12] = 30 g ai/ha, treatment B post emergence, DAT 25/DALT 10
[13] = 30 g ai/ha, treatment B post emergence, DAT 65/DALT 50
[14] = 30 g ai/ha, treatment B post emergence, DAT 176/DALT 161
[15] = 50 g ai/ha, treatment A early post emergence, DAT 25/DALT 10
[16] = 50 g ai/ha, treatment A early post emergence, DAT 65/DALT 50
[17] = 50 g ai/ha, treatment A early post emergence, DAT 176/DALT 161
[18] = 50 g ai/ha, treatment B post emergence, DAT 25/DALT 10
[19] = 50 g ai/ha, treatment B post emergence, DAT 65/DALT 50
[20] = 50 g ai/ha, treatment B post emergence, DAT 176/DALT 161
[21] = aminopyralid 15 g ai/ha, treatment A, DAT 205/DALT 190
[22] = aminopyralid 15 g ai/ha, treatment B, DAT 205/DALT 190
[23] = aminopyralid 30 g ai/ha, treatment A, DAT 205/DALT 190
[24] = aminopyralid 30 g ai/ha, treatment B, DAT 205/DALT 190
[25] = aminopyralid 50 g ai/ha, treatment A, DAT 205/DALT 190
[26] = aminopyralid 50 g ai/ha, treatment B, DAT 205/DALT 190

## Nc1cc(Cl)nc(C(=O)O)c1Cl [aminopyralid, 4-amino-3,6-dichloropyridine-2-carboxylic acid]
Veronica persica; [3]
  damage on VERPE: 0%
Veronica persica; [4]
  damage on VERPE: 0%
Veronica persica; [5]
  damage on VERPE: 0%
Veronica persica; [6]
  damage on VERPE: 0%
Veronica persica; [7]
  damage on VERPE: 0%
Veronica persica; [8]
  damage on VERPE: 12%
Veronica persica; [9]
  damage on VERPE: 23%
Veronica persica; [10]
  damage on VERPE: 13%
Veronica persica; [11]
  damage on VERPE: 12%
Veronica persica; [12]
  damage on VERPE: 0%
Veronica persica; [13]
  damage on VERPE: 0%
Veronica persica; [14]
  damage on VERPE: 10%
Veronica persica; [15]
  damage on VERPE: 73%
Veronica persica; [16]
  damage on VERPE: 50%
Veronica persica; [17]
  damage on VERPE: 50%
Veronica persica; [18]
  damage on VERPE: 13%
Veronica persica; [19]
  damage on VERPE: 20%
Veronica persica; [20]
  damage on VERPE: 30%
Veronica persica; [21]
  damage on VERPE: 0%
Veronica persica; [22]
  damage on VERPE: 18%
Veronica persica; [23]
  damage on VERPE: 12%
Veronica persica; [24]
  damage on VERPE: 12%
Veronica persica; [25]
  damage on VERPE: 48%
Veronica persica; [26]
  damage on VERPE: 33%
Alopecurus myosuroides
  % activity: 60%
Matricaria inodora; 28 DAT
  % activity: 78%
Matricaria inodora; 29 DAT
  % activity: 87%
Anthemis arvensis; Aminopyralid 7.5 g ai/ha solo, 29 DAT
  % activity: 77%
Anthemis arvensis; Aminopyralid 15 g ai/ha solo, 29 DAT
  % activity: 94%
Anthemis arvensis; Aminopyralid 15 g ai/ha solo, 78 DAT
  % activity: 96%
Centaurea cyanus
  % activity: 98%
Stellaria media [1]
  % activity: 75%
Stellaria media [2]; aminopyralid 5 g ai/ha solo
  % activity 28 DAT: 35%
Stellaria media [2]; aminopyralid 10 g ai/ha solo
  % activity 28 DAT: 65%
Galium aparine; [3]
  damage on GALAP: 67%
Galium aparine; [4]
  damage on GALAP: 77%
Galium aparine; [5]
  damage on GALAP: 86%
Galium aparine; [6]
  damage on GALAP: 72%
Galium aparine; [7]
  damage on GALAP: 78%
Galium aparine; [8]
  damage on GALAP: 82%
Galium aparine; [9]
  damage on GALAP: 92%
Galium aparine; [10]
  damage on GALAP: 96%
Galium aparine; [11]
  damage on GALAP: 96%
Galium aparine; [12]
  damage on GALAP: 72%
Galium aparine; [13]
  damage on GALAP: 78%
Galium aparine; [14]
  damage on GALAP: 86%
Galium aparine; [15]
  damage on GALAP: 99%
Galium aparine; [16]
  damage on GALAP: 99%
Galium aparine; [17]
  damage on GALAP: 100%
Galium aparine; [18]
  damage on GALAP: 87%
Galium aparine; [19]
  damage on GALAP: 87%
Galium aparine; [20]
  damage on GALAP: 89%
Galium aparine; [21]
  damage on GALAP: 88%
Galium aparine; [22]
  damage on GALAP: 87%
Galium aparine; [23]
  damage on GALAP: 93%
Galium aparine; [24]
  damage on GALAP: 91%
Galium aparine; [25]
  damage on GALAP: 100%
Galium aparine; [26]
  damage on GALAP: 93%
Sissimbrium officinale; [3]
  damage on SSYOF: 33%
Sissimbrium officinale; [4]
  damage on SSYOF: 0%
Sissimbrium officinale; [5]
  damage on SSYOF: 0%
Sissimbrium officinale; [6]
  damage on SSYOF: 53%
Sissimbrium officinale; [7]
  damage on SSYOF: 0%
Sissimbrium officinale; [8]
  damage on SSYOF: 0%
Sissimbrium officinale; [9]
  damage on SSYOF: 71%
Sissimbrium officinale; [10]
  damage on SSYOF: 25%
Sissimbrium officinale; [11]
  damage on SSYOF: 25%
Sissimbrium officinale; [12]
  damage on SSYOF: 60%
Sissimbrium officinale; [13]
  damage on SSYOF: 27%
Sissimbrium officinale; [14]
  damage on SSYOF: 27%
Sissimbrium officinale; [15]
  damage on SSYOF: 86%
Sissimbrium officinale; [16]
  damage on SSYOF: 50%
Sissimbrium officinale; [17]
  damage on SSYOF: 50%
Sissimbrium officinale; [18]
  damage on SSYOF: 72%
Sissimbrium officinale; [19]
  damage on SSYOF: 32%
Sissimbrium officinale; [20]
  damage on SSYOF: 32%
Sissimbrium officinale; [21]
  damage on SSYOF: 0%
Sissimbrium officinale; [22]
  damage on SSYOF: 0%
Sissimbrium officinale; [23]
  damage on SSYOF: 23%
Sissimbrium officinale; [24]
  damage on SSYOF: 50%
Sissimbrium officinale; [25]
  damage on SSYOF: 62%
Sissimbrium officinale; [26]
  damage on SSYOF: 52%
